Reference: article PMC5642495, “Characterization of a novel androgen receptor (AR) coregulator RIPK1 and related chemicals that suppress AR-mediated prostate cancer growth via peptide and chemical screening” (Oncotarget, 2017)

Columns and labels:
LNCaP = assay: cell growth assay (MTT), LNCaP; format: cell-based; conditions: Homo sapiens, 48 h, Figure 4B, read-out: IC50, prostate cancer cell line growth
Method: LNCaP, CWR22R, and PC-3 cells were grown in RPMI containing 10% FBS. Cells were plated at a density of 5 × 10^4 cells/well in 24-well plates overnight and incubated with difference concentrations of chemicals for 48 h. Cell growth was assessed using the 3-{4,5-dimethylthiazol-2-yl}-2,5-diphenyltetrazolium bromide (MTT) assay. At each time-point, 50 μl of 5 mg/ml MTT was added to each well containing 500 μl medium and incubated for 3 h, followed by the addition of 500 μl isopropyl alcohol to dissolve the reduced formazan product. Absorbance of each well was measured at a wavelength of 590 nm in a DU 640B spectrophotometer (Beckman, Fullerton, CA), according to the manufacturer’s protocol. Values represent mean OD590 ± SD from at least three independent reaction wells.

AR-peptide interaction = target: T1, AR-peptide interaction (Homo sapiens, UniProt P10275); assay: AR-peptide interaction reporter assay (GAL4-DBD-3-18 / VP16-AR) in PC-3 cells; format: cell-based; conditions: 10 nM DHT, Figure 6B
T1 construct: expressed in transfected cells; host or cells: PC-3
T1 sequence (P10275 1-920): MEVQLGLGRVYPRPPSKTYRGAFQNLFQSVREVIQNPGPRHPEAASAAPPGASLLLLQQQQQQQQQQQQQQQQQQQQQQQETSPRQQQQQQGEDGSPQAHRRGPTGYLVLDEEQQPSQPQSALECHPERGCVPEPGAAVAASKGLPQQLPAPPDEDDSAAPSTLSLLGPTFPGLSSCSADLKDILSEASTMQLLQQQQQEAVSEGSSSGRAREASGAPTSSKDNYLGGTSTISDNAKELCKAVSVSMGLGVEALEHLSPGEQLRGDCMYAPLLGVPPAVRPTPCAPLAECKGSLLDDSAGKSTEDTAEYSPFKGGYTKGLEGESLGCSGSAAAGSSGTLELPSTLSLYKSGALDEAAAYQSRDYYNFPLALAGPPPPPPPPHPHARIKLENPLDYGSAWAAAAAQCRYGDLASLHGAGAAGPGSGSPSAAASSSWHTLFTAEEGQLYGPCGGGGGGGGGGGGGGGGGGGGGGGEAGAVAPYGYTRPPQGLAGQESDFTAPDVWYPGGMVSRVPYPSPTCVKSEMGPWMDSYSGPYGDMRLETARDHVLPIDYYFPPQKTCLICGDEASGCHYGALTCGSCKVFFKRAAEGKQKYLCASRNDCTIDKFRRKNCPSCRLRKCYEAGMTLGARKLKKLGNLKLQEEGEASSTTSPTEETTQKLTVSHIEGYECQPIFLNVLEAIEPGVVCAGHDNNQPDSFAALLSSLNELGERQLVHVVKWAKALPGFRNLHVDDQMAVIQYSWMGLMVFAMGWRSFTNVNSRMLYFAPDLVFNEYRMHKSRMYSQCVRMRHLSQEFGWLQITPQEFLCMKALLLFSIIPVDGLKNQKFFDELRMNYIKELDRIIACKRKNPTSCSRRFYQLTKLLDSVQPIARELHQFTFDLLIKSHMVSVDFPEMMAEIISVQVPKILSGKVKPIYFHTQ
Method: (§1) Figure 6 Mechanism underlying suppression of AR-related functions by oxadiazole derivatives (A–C) Transcriptional activity in reporter assays. PC-3 cells in 24-well plates were transfected as indicated below. After incubation for 16 h, cells were treated with ethanol, 10 nM DHT, or 0.01–10 μM HWC-489 or LHJ-647 for an additional 16 h. Luciferase activity in cell lysates was determined and normalized to protein concentrations. Relative luciferase activity was calculated using the luciferase reporter assay system. (A) PC-3 cells were co-transfected with 350 ng pCDNA3-flag-hAR-N (residues 1–506), 350 ng pCDNA3-hAR-C (residues 556–919), and 300 ng MMTV-Luc plasmids. (B) PC-3 cells were co-transfected with 350 ng GAL4-DBD-3-18, 350 ng pCMX-VP16-AR, and 300 ng pG5-Luc plasmids. (C) PC-3 cells were transfected with 350 ng GAL4-DBD-ARA54C, 350 ng VP16-AR, and 300 ng pG5-Luc plasmids. (D) LHJ-647 promotes AR protein degradation.

AR-cofactor interaction = target: T2, AR-cofactor interaction (Homo sapiens, UniProt P10275); assay: AR-cofactor interaction reporter assay (GAL4-DBD-ARA54C / VP16-AR) in PC-3 cells; format: cell-based; conditions: 10 nM DHT, Figure 6C
T2 construct: expressed in transfected cells; host or cells: PC-3
T2 sequence (P10275 1-920): T1 sequence (P10275 1-920)
Method: as §1

NOD/SCID mice = assay: treatment toxicity monitoring in xenograft mice; format: in vivo; conditions: for changes in body weight, clinical signs and gross morphology: during the study period; for mouse mortality: in vivo
Method: All experiments involving laboratory animals were conducted in accordance with the Guidelines for Animal Experiments of Chang Gung Memorial Hospital and approved by the Animal Research Committee at the hospital. LNCaP cells were harvested, washed twice with phosphate-buffed saline, and resuspended at a final concentration of 5 × 10^6 cells/mL in Matrigel (BD Biosciences, San Jose, CA) containing basement membrane components. Next, 5 × 10^5 cells (100 μL per site) were subcutaneously injected into the flanks of 4–6 week-old male NOD/SCID mice (BioLASCO, Taiwan). Tumor development was confirmed within 2–3 weeks after injection of the same number of cell subclones. Treatment with different chemicals was initiated at the same time. Tumor dimensions were measured twice a week with calipers, and tumor volumes calculated using the formula: tumor volume (mm^3) = tumor length (mm) × [tumor width (mm)]^2 × 0.5. Three to five mice were used per group (with or without chemical treatment). Mice were sacrificed 4 weeks after chemical injection and tumors harvested for further analyses. For evaluation of treatment toxicity, animal mortality, changes in body weight, clinical signs and gross morphology were monitored during the experiment.

AR protein = target: T3, AR protein (Homo sapiens, UniProt P10275); assay: AR protein degradation; format: cell-based; conditions: Figure 6D
T3 sequence (P10275 1-920): T1 sequence (P10275 1-920)
Method: as §1

SMILES | IC50 (LNCaP) | concentration range of significant suppression of AR-peptide interaction (AR-peptide interaction) | concentration range of significant suppression of AR-cofactor interaction (AR-cofactor interaction) | changes in body weight, clinical signs and gross morphology (NOD/SCID mice) | mouse mortality (NOD/SCID mice) | AR protein degradation (AR protein)
Cc1ccc(-c2nnc(Nc3ccccc3)o2)cc1 [HWC-489] | 1 to 10 µM | 0.1 to 1 µM | 0.1 to 1 µM | no significant alterations | No mouse mortality was observed | 
COc1cccc(Nc2nnc(-c3ccc(N(C)C)cc3)o2)c1 [LHJ-647] | 1 to 10 µM | 0.1 to 1 µM | 0.1 to 1 µM | no significant alterations | No mouse mortality was observed | promoted AR protein degradation
